# In ChEMBL document CHEMBL1135755, “SAR by MS: a ligand based technique for drug lead discovery against structured RNA targets” (J Med Chem, 2002):
# Columns and labels:
# Nucleic Acid = assay: Inhibitory activity against RNA target using functional assay
# [1] = Dissociation constant was determined; format: physicochemical
compound,measurement,setting,value
NCC[C@@H](NC(=O)c1ccc(-c2cccc(NC(=O)c3ccc4nc(O)c(O)nc4c3)c2)o1)C(=O)N1CCNCC1,IC50,Nucleic Acid,14 µM
same,Kd,[1],6.5 µM
